Laboratory results taken from patent US11691962B2 (eXIthera Pharmaceuticals, Inc., priority 2018, dated 2023).

Experiments:
[1] = Aqueous solubility in PBS by HPLC-UV/VIS; assay type: physicochemical; conditions: phosphate buffered saline, aqueous buffer, kinetic from dmso stock; PBS pH 7.4, 2% DMSO, 24 h at room temperature
How it was run: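 Compound diluted to 200 μM in PBS pH 7.4 from DMSO stock (2% DMSO final), incubated 24 h at room temperature, then centrifuged. Supernatant analysed by HPLC-UV/VIS; solubility (μM) from principal-peak area versus a 200 μM calibration standard. Range approximately 0.5–200 μM.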

[2] = Plasma protein binding by equilibrium dialysis; assay type: in vitro ADME; conditions: both sexes, pH 7.4, pooled human plasma, 4 hours at 37° C., read-out: PPB (%)
How it was run: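 Pooled mixed-gender human plasma spiked with compound at 10 μM was dialysed against PBS pH 7.4 for 4 h at 37°C. Both compartments were quantified by HPLC-MS/MS, and % bound was calculated from plasma vs buffer peak areas.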

[3] = Metabolic stability in dog hepatocytes; assay type: in vitro ADME; conditions: pooled cryopreserved hepatocytes; beagle dog hepatocytes, 2 μM compound; read-out: Dog Hepatocyte Stability (t1/2)
How it was run: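 Pooled cryopreserved beagle hepatocytes at 500,000 cells/mL in Krebs-Henseleit buffer with 2 μM compound, 37 °C, 5% CO2, sampled out to 180 min. Acetonitrile-quenched samples analysed by LC-MS/MS; percent remaining from peak area versus time zero.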

[4] = tested on: Trypsin; assay: Dose response assay for protease inhibitors: trypsin; assay type: biochemical; conditions: selectivity, trypsin over Factor XIa
How it was run: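 Glp-Pro-Arg-AMC substrate (thrombin, trypsin) or Pro-Phe-Arg-AMC/Boc-Leu-Gly-Arg-AMC (Factor Xa), diluted to 100 μM, in 20 mM Hepes pH 7.4, 150 mM NaCl, 0.02% Tween 20; enzyme diluted to 0.5 nM before addition. Two-fold serial compound dilutions; kinetic reads at 30° C. Data yield IC50 and Kon.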

| Compound | solubility at 24 h [1] [µM] | fraction unbound at 4 h, 10 μM [2] | half-life at 2 μM [3] [min] | Ratio: Trypsin/FXIa [4] |
| --- | --- | --- | --- | --- |
| CC[C@@H](NC(=O)N1C(=O)[C@H](Cc2ccnc(N)c2)[C@H]1C(=O)N(C)c1cscn1)c1cccc(Cl)c1 [Compound 1-17, (2S,3R)-3-((2-aminopyridin-4-yl)methyl)-N2-(4-thiazolyl)-N1-((R)-1-(3-chlorophenyl)propyl)-N2-methyl-4-oxoazetidine-1,2-dicarboxamide] | > 100 | 0.05 to 0.09 | 61 to 120 | G (“G” indicates 1-100) |
| CC[C@@H](NC(=O)N1C(=O)[C@H](Cc2cc(C)nc(NC)c2)[C@H]1C(=O)N(C)c1nccn1C)c1ccccc1 [Compound 1-45, (2S,3R)-3-((2-methylamino-6-methylpyridin-4-yl)methyl)-N2-(1-methyl-1H-imidazol-2-yl)-N1-((R)-1-phenylpropyl)-N2-methyl-4-oxoazetidine-1,2-dicarboxamide] | > 100 | 0.1 to 0.5 | 121 to 240 | G (“G” indicates 1-100) |
| CC[C@@H](NC(=O)N1C(=O)[C@H](Cc2ccnc(N)c2)[C@H]1C(=O)N(C)c1nccn1C)c1ccccc1 [Compound 1-13, (2S,3R)-3-((2-aminopyridin-4-yl)methyl)-N2-(1-methyl-1H-imidazol-2-yl)-N1-((R)-1-phenylpropyl)-N2-methyl-4-oxoazetidine-1,2-dicarboxamide] | > 100 | 0.1 to 0.5 | 121 to 240 | G (“G” indicates 1-100) |
| CC[C@@H](NC(=O)N1C(=O)[C@H](Cc2ccnc(NC)c2)[C@H]1C(=O)N(C)c1nccn1C)c1cccc(Cl)c1 [Compound 1-41, (2S,3R)-3-((2-methylaminopyridin-4-yl)methyl)-N2-(1-methyl-1H-imidazol-2-yl)-N1-((R)-1-(3-chlorophenyl)propyl)-N2-methyl-4-oxoazetidine-1,2-dicarboxamide] | > 100 | 0.1 to 0.5 | 61 to 120 | G (“G” indicates 1-100) |
| CC[C@@H](NC(=O)N1C(=O)[C@H](Cc2cc(C)nc(N)c2)[C@H]1C(=O)N(C)c1ccn(C)n1)c1cccc(C)c1 [Compound 1-22, (2S,3R)-3-((2-amino-6-methylpyridin-4-yl)methyl)-N2-(1-methyl-1H-pyrazol-3-yl)-N1-((R)-1-(3-methylphenyl)propyl)-N2-methyl-4-oxoazetidine-1,2-dicarboxamide] | > 100 | 0.1 to 0.5 | 121 to 240 | G (“G” indicates 1-100) |
| CC[C@@H](NC(=O)N1C(=O)[C@H](Cc2ccnc(N)c2)[C@H]1C(=O)N(C)c1cnn(C)c1)c1ccccc1 [Compound 1-88, (2S,3R)-3-((2-aminopyridin-4-yl)methyl)-N2-(1-methyl-1H-pyrazol-4-yl)-N1-((R)-1-phenylpropyl)-N2-methyl-4-oxoazetidine-1,2-dicarboxamide] | > 100 | 0.1 to 0.5 | > 240 | G (“G” indicates 1-100) |
| CC[C@@H](NC(=O)N1C(=O)[C@H](Cc2ccnc(N)c2)[C@H]1C(=O)N(C)c1nccn1C)c1cccc(C)c1 [Compound 1-80, (2S,3R)-3-((2-aminopyridin-4-yl)methyl)-N2-(1-methyl-1H-imidazol-2-yl)-N1-((R)-1-(3-methylphenyl)propyl)-N2-methyl-4-oxoazetidine-1,2-dicarboxamide] | > 100 | 0.1 to 0.5 | 121 to 240 | G (“G” indicates 1-100) |
